Measured values reported in patent publication US20260273028A1, “PEROXIDASE COMPOSITIONS CONTAINING IMPROVED ENHANCING AGENTS” (FLEN HEALTH PHARMA NV, priority 2022, published 2026).

Legend:
S. aureus (ATCC®6538™) = assay: Microbial challenge testing in alginogel with GOX+LPO; format: cell-based; settings: for antimicrobial efficacy against S. aureus of halide alone, 0 vs 80 minute timepoint: alginogel, halide alone (without enzymes) 0.03% (v/v)
Procedure: To determine the ability of an antimicrobial agent to elicit an antimicrobial preserving efficacy in a gel environment, a microbiological challenge test can be performed. Here, the antimicrobial agent is a combination of the natural enzymes GOX+LPO. […] Microbial challenge testing was performed according to the method described in the European Pharmacopoeia current version chapter 5.1.3 ‘Efficacy of antimicrobial preservation’, but with adapted time points (0, 10, 20, 30, 40, 50, 60, 70 and 80 min instead of 0, 2, 7, 14 and 28 days). In brief, for every enhancing agent to be evaluated, a lab-scale alginogel (based on the Flaminal® formulation, but without the original enhancer guaiacol) including 0.0075% GOX+LPO (1:1) was prepared according to standard practices. Enhancing agents were added to the alginogel in a final concentration ranging from 0.01 to 0,00025% (v/w). As a reference, an alginogel including 0.0075% GOX+LPO (1:1) without the addition of any enhancing agent was included (designated as: enzymes only). As a control, an alginogel without both GOX+LPO (1:1) enzyme solution and enhancing agent (designated as: empty gel) as well as an alginogel only containing the enhancing agent only (designated as: enhancing candidate only) were included. After preparation, a homogenous sample of 10 g was transferred into a 50 ml conical tube for each alginogel to be evaluated and microorganism to be tested. For each test microorganism, including S. aureus (ATCC®6538™), P. aeruginosa (ATCC®9027™), C. albicans (ATCC®10231™) and A. niger (ATCC®16404 ™), a microbial suspension of about 10^8 CFU/ml was prepared in sterile diluent (buffered sodium chloride-peptone solution). Then, the 50 ml conical tubes containing the alginogel samples to be evaluated were inoculated with 100 μl of the designated inoculum. At the start (time point 0) and after 0, 10, 20, 30, 40, 50, 60, 70 and 80 min, the number of viable microorganisms per gram product (expressed as CFU/g) was determined by transferring a sample of 0.5 g of the product into a 15 ml conical tube containing 4.5 ml of sterile diluent and applying general dilution and plate count techniques. For each combination evaluated, this test was repeated at least 1-3 times. The collected data were further analyzed in MS Excel. Mean absolute counts (expressed as log CFU/g) were visualized in a graph.
The purpose of the hereby described experiment was to compare the efficacy of antimicrobial activity enhancement of the GOX+LPO (1:1) enzyme combination by ethanolamine and proline in a microbial challenge test using S. aureus. The test was set up as described in the section on ‘challenge testing’ in Example 2.4. The test was repeated at least 3 times.
The purpose of the hereby described experiment was to compare the efficacy of antimicrobial activity of the GOX+LPO (1:1) enzyme combination in the presence of potassium chloride/potassium bromide and potassium iodide. A microbial challenge test using S. aureus was performed. The test was set up as described in the section on ‘challenge testing’ in Example 2.4.

GOX = GOX (Aspergillus niger, UniProt P13006); assay: Glucose oxidase (GOX) activity, spectrophotometric assay; format: biochemical; settings: cysteine 1-0.1 mg/ml (FIG. 1)
Chain of GOX (P13006 17-605): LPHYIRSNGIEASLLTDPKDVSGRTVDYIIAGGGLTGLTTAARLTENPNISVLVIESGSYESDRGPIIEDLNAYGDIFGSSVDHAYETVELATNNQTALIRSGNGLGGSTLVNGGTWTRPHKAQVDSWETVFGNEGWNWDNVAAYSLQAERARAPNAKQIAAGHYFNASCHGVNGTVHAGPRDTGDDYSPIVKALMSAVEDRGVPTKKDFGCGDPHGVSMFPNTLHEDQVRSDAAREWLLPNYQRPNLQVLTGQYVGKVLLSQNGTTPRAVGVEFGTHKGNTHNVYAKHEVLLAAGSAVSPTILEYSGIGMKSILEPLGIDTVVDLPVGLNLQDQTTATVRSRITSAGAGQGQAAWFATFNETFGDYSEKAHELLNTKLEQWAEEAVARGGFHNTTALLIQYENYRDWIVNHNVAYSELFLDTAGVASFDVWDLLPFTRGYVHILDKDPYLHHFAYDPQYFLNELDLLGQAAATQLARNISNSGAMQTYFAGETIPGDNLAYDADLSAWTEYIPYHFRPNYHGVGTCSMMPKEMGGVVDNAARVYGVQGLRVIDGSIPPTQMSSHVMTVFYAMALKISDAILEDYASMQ
Procedure: The natural enzyme GOX is an oxidoreductase that catalyses the oxidation of glucose to gluconic acid and hydrogen peroxide (H2O2) in the presence of water and air. To measure the enzymatic activity of GOX, a standard spectrophotometric assay is performed. In brief, a second oxidoreductase enzyme, peroxidase, and a chromogenic oxygen acceptor, o-dianisidine, are added to the former reaction mix (GOX+glucose+water+air) so that the formation of a coloured compound is achieved that can in turn be measured by spectrophotometry. GOX was tested in 4 different concentrations, i.e., 100, 50, 10 and 1 mg/ml. Each reaction mixture was tested in duplo. In the event GOX activity was evaluated in the presence of a potentiator candidate (=a molecule that might be able to augment the enzymatic activity of GOX), the latter was added in a low and high concentration ranging from 100 to 0.1 mg/ml. The blank consisted of the reaction mix in which the enzymes were absent. After mixing all reaction elements, absorbance was immediately measured with a plate reader (Spectramax ID3, Molecular Devices) every minute for 5 minutes at 35° C. For each combination evaluated, this test was repeated at least 2 times. Results were further analysed in MS Excel and expressed as U/g. Mean blank-corrected data±SD were plotted. Statistical significance compared to the combination without potentiator candidate (reference) was calculated using students' t-tests. Significance is achieved when the obtained p-value is lower than 0,05. Significance levels were defined as p<0.05=*; p<0.01=** and p<0.001=***.

Lactoperoxidase = Lactoperoxidase (Bos taurus, UniProt P80025); assay: Lactoperoxidase (LPO) activity, spectrophotometric assay (ABTS); format: biochemical; settings: concentration not given
Procedure: Lactoperoxidase is a member of the heme peroxidase family of enzymes that, together with a catalytic anion (such as I^−, derived from KI, present in the substrate), will catalyse the oxidation of H2O2, leading to hypojodite (IO^−). This hypojodite is a reactive oxygen species (ROS). To measure the enzymatic activity of LPO, a standard spectrophotometric assay is performed. In brief, H2O2 combined with 2,2′-azino-bis (3-ethylbenzothiazoline-6-sulfonzuur (ABTS) is catalysed by LPO so that the formation of a coloured compound is achieved that can in turn be measured by spectrophotometry. LPO was tested in 3 different concentrations, i.e., 50, 10 and 1 mg/ml. Each reaction mixture was tested in duplo. In the event LPO activity was evaluated in the presence of a potentiator candidate (=a molecule that might be able to augment the enzymatic activity of LPO), the latter was added in a low and high concentration ranging from 100 to 0.1 mg/ml. The blank consisted of the reaction mix in which H2O2 was absent. The absorbance was immediately measured with a plate reader (Spectramax ID3, Molecular Devices) every 12 seconds for 5 minutes at 20° C. For each combination evaluated, this test was repeated at least 2 times. Results were further analysed in MS Excel and expressed as U/g. Mean blank-corrected data±SD were plotted. Statistical significance compared to the combination without potentiator candidate (reference) was calculated using students' t-tests. Significance is achieved when the obtained p-value is lower than 0,05. Significance levels were defined as p<0.05=*; p<0.01=** and p<0.001=***.

[1] = tested on: Pseudomonas aeruginosa ATCC®9027™; assay: MBC determination, broth microdilution with CFU enumeration; format: cell-based; settings: P. aeruginosa; guaiacol added as enhancing agent
Procedure: The minimal bactericidal concentration (MBC) is defined as the lowest concentration of an antimicrobial agent that results in a complete killing of the microbial population (determined via standard CFU enumeration techniques) after overnight incubation. This endpoint measurement is used, together with the MIC (see above), to define the microbial susceptibility towards an antimicrobial agent. Here, the antimicrobial agent is a combination of the natural enzymes GOX+LPO.
To determine the MBC of the described combinations, a classical broth microdilution assay combined with standard CFU enumeration techniques was used to determine the susceptibility of a series of microbes commonly detected in infected wounds, including (a) the Gram-positive bacterium Staphylococcus aureus ATCC® 6538™ (results shown below), (b) the Gram-negative bacterium Pseudomonas aeruginosa ATCC®9027™ (results shown below), (c) the yeast Candida albicans ATCC®10231™ (results shown below), and (d) the fungus Aspergillus niger ATCC®16404™ (results shown below). In brief, the broth microdilution assay was set up as previously described (see 2.1). After incubation, the MBC was determined by investigating the presence of viable microorganisms at the MIC and following higher concentrations (MICx2, MICx4, and so on) using standard CFU enumeration techniques. For each combination evaluated, this test was repeated at least 5 times. The collected data were further analyzed in MS Excel. Mean concentration data (expressed as log CFU/ml) were visualized in a table format in which the MBC was highlighted.

[2] = tested on: Staphylococcus aureus ATCC® 6538™; assay: MIC determination, broth microdilution, GOX+LPO with potentiator candidate; format: cell-based; settings: S. aureus; guaiacol added as enhancing agent
Procedure: (§1) The minimum inhibitory concentration (MIC) is defined as the lowest concentration of an antimicrobial agent that results in a complete inhibition of microbial growth (determined via visual evaluation or absorbance measurements) after overnight incubation. This endpoint measurement is used to define the microbial susceptibility towards an antimicrobial agent. Here, the antimicrobial agent is a combination of the natural enzymes GOX+LPO.
(§2) To determine the MIC of the described combinations, a classical broth microdilution assay was used to determine the susceptibility of a series of microbes commonly detected in infected wounds, including (a) the Gram-positive bacterium Staphylococcus aureus ATCC® 6538™ (results shown below), (b) the Gram-negative bacterium Pseudomonas aeruginosa ATCC®9027™ (results shown below), (c) the yeast Candida albicans ATCC®10231™ (results shown below), and (d) the fungus Aspergillus niger ATCC®16404™ (results shown below). In brief, a […] serial dilution of the enzymatic GOX+LPO solution was prepared in a transparent, flat-bottomed 96-well test plate with final concentrations ranging from 0.005 to 0.00000977% (v/v). To each well, a fixed volume of the enzymatic substrate containing 3,3% (w/v) glucose and 0,084% (w/v) potassium iodide, as well as the microbial inoculum with an OD600 of 0.1 was added. In the event the enzyme combination was evaluated in the presence of a potentiator candidate, the latter was added together with the enzymatic substrate in a final concentration ranging from 100 to 0,00125% (v/v). For each combination evaluated, a blank (no addition of microbial inoculum) was included. Positive (inoculum only) and negative (background solution only) were included to evaluate the performance of the test and to select the enzymatic GOX+LPO concentration at which no microbial growth is detected (i.e., absorbance equal to that of the background solution only). Then, the 96-well test plate was incubated for 24 hours at 37° C. (S. aureus, P. aeruginosa and C. albicans) or 25° C. (A. niger). After incubation, the absorbance of each well was measured using a plate spectrophotometer (Spectramax ID3, Molecular Devices). For each combination evaluated, this test was repeated at least 5 times. The collected data were further analyzed in MS Excel. Mean absorbance data were visualized in a table format in which the MIC was highlighted.

[3] = tested on: Pseudomonas aeruginosa ATCC®9027™; assay: as above; format: cell-based; settings: P. aeruginosa; guaiacol added as enhancing agent
Procedure: as §1, §2

SMILES: [Br-].[K+] [KBr, potassium bromide, reference compound]
- antimicrobial efficacy against S. aureus of halide alone, 0 vs 80 minute timepoint (S. aureus (ATCC®6538™)): did not result in any difference in antimicrobial efficacy

SMILES: N[C@@H](CS)C(=O)O [cysteine, reference compound]
- GOX activity compared to reference (GOX): significant lower GOX activity

SMILES: [I-].[K+] [KI, potassium iodide]
- time to complete reduction of absolute S. aureus counts (S. aureus (ATCC®6538™); alginogel with GOX+LPO (1:1), halide 0,03% (v/v)): 70 min
- time to complete reduction of absolute S. aureus counts (S. aureus (ATCC®6538™); alginogel with GOX+LPO (1:1), halide 0,003% (v/v)): 80 min
- antimicrobial efficacy against S. aureus of halide alone, 0 vs 80 minute timepoint (S. aureus (ATCC®6538™)): did not result in any difference in antimicrobial efficacy

SMILES: NCCO [ethanolamine, reference compound]
- exposure time to complete reduction of absolute S. aureus counts (average) (S. aureus (ATCC®6538™); alginogel with GOX+LPO (1:1), enhancer 0,0005% (v/v)): 70 min

SMILES: CC(C)C[C@H](N)C(=O)O [leucine, reference compound]
- LPO activity compared to reference (Lactoperoxidase): did not result in a significant difference

SMILES: [Cl-].[K+] [KCl, potassium chloride, reference compound]
- antimicrobial efficacy against S. aureus of halide alone, 0 vs 80 minute timepoint (S. aureus (ATCC®6538™)): did not result in any difference in antimicrobial efficacy

SMILES: COc1ccccc1O [guaiacol, reference compound]
- MBC: GOX+LPO enzyme solution needed [1]: 0.00125 % (v/v)
- MIC: GOX+LPO enzyme solution needed to completely inhibit growth [2]: 0.0000781 % (v/v)
- MIC: GOX+LPO enzyme solution needed to completely inhibit growth [3]: 0.00125 % (v/v)
